# Literature values as cited in patent publication US7320786B2, “Photodynamic therapy treatment for eye disease” (Light Sciences Oncology, Inc., priority 2000, dated 2008).
# Conditions: systemically administered photosensitizer, clinical use
row,Molecule,duration of skin photosensitivity
1,Oc1cccc(-c2c3nc(c(-c4cccc(O)c4)c4ccc([nH]4)c(-c4cccc(O)c4)c4nc(c(-c5cccc(O)c5)c5ccc2[nH]5)CC4)C=C3)c1 [Foscan],several
2,CCOC(=O)C1=Cc2c3nc(cc4nc(cc5[n-]c(cc6[n-]c2c(C)c6CC)c(C)c5CC)C(C)=C4CC)[C@@H](C)[C@]13CC.[Cl-].[Cl-].[Sn] (racemic) [Purlytin],several
3,sodium porfimer [Photophrin],up to 6 weeks
